A short description of series [1]: H+/Na+ transport assay of bead-derived peptides (one-point).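 Further: relative to parent gramicidin A activity set to 1.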 The arrangement: key: relative activity; mean of two control wells = 1.00. Format: biochemical. The note with it: bead-derived peptide solution, EYPC/EYPG LUVs. Summed up:
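Miniaturized 96-well format. LUVs with entrapped pyranine (1.0 mM) were exposed to peptide for 30 min at RT. Intensities were expressed relative to full lysis by Triton X-100 and no treatment, with control-well mean = 1.00.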

Series [2] concerns Streptococcus pyogenes SSI-9. Nature of the series: Antibacterial activity assay of bead-derived peptides (three concentrations). Format: cell-based. The arrangement: key: +++: inhibition by the 640-fold diluted peptide solution; ++: inhibition by the 160-fold diluted solution; +: inhibition by the 40-fold diluted solution; -: no inhibition. The settings on record: S. pyogenes, bead-derived peptide solution, three concentrations. An outline of the steps:
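Undiluted, 4-fold and 16-fold DMSO-diluted peptide stocks; S. pyogenes SSI-9, 2 × 10^5 CFU, cation-adjusted MHB (50 mg/L Ca2+, 25 mg/L Mg2+) + 5% laked horse blood; 37 °C, 18 h; readout = cell pellet visible or not.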

The test system of series [3] is P388 mouse leukemia cells. The settings on record: 92 h. Summed up: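 P388 cells at 1 × 10^4 cells/mL (final) were exposed to library peptides (stocks diluted 250-fold in RPMI1640/10% FBS) for 92 h at 37 °C, 5% CO2. Viable cells were counted by WST-1/1-methoxy PMS (4 h), absorbance 415 nm, and expressed as cell viability (%).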

Where a SMILES comes first, the peptide text is derived from it. [ ]: non-standard residue; d: D form. The star is where a group is joined. NHCH2CH2OH = OCCN*; For = O=C*

In the case of `CC(C)C[C@@H](NC(=O)[C@H](Cc1c[nH]c2ccccc12)NC(=O)[C@@H](CC(C)C)NC(=O)[C@H](Cc1c[nH]c2ccccc12)NC(=O)[C@@H](CC(C)C)NC(=O)[C@H](Cc1c[nH]c2ccccc12)NC(=O)[C@H](NC(=O)[C@@H](NC(=O)[C@H](NC(=O)[C@H](C)NC(=O)[C@H](NC(=O)[C@H](C)NC(=O)CNC(=O)[C@@H](NC=O)C(C)C)C(C)C)C(C)C)C(C)C)[C@H](C)O)C(=O)N[C@@H](Cc1c[nH]c2ccccc12)C(=O)NCCO` [compound 12287] (For-VGA[dV]A[dV]V[dT]W[dL]W[dL]W[dL]W-NHCH2CH2OH), in series [1], the “H+/Na+ transport activity normalized against the value of 1 (1.00)” value (shortened to “H+/Na+ transport activity normalized”) came out at 1.16. For the same molecule, in series [2], the antibacterial activity result is listed as “-”. For the same molecule, the cell viability/% in series [3] amounted to 100.0%.

As to `CC(C)C[C@@H](NC(=O)[C@H](C)NC(=O)[C@H](NC(=O)[C@H](C)NC(=O)CNC(=O)[C@@H](NC=O)C(C)C)C(C)C)C(=O)N[C@H](C(=O)N[C@H](CC(C)C)C(=O)N[C@@H](Cc1c[nH]c2ccccc12)C(=O)N[C@@H](C(=O)N[C@@H](Cc1c[nH]c2ccccc12)C(=O)N[C@@H](C(=O)N[C@@H](Cc1c[nH]c2ccccc12)C(=O)N[C@@H](C(=O)N[C@@H](Cc1c[nH]c2ccccc12)C(=O)NCCO)C(C)C)C(C)C)C(C)C)C(C)C` [compound 2212] (For-VGA[dV]A[dL]V[dL]W[dV]W[dV]W[dV]W-NHCH2CH2OH), the “H+/Na+ transport activity normalized” value in series [1] is on record as 1.18. Besides, the antibacterial activity entry in series [2] was “+”. In series [3], this molecule returned a cell viability/% of 11.5%.

Regarding `CC(C)C[C@@H](NC(=O)[C@H](C)NC(=O)CNC(=O)[C@@H](NC=O)C(C)C)C(=O)N[C@@H](C)C(=O)N[C@H](CC(C)C)C(=O)N[C@H](C(=O)N[C@H](CC(C)C)C(=O)N[C@@H](Cc1c[nH]c2ccccc12)C(=O)N[C@@H](C(=O)N[C@@H](Cc1c[nH]c2ccccc12)C(=O)N[C@@H](C(=O)N[C@@H](Cc1c[nH]c2ccccc12)C(=O)N[C@@H](C(=O)N[C@@H](Cc1c[nH]c2ccccc12)C(=O)NCCO)C(C)C)C(C)C)[C@H](C)O)C(C)C` [compound 4532] (For-VGA[dL]A[dL]V[dL]W[dT]W[dV]W[dV]W-NHCH2CH2OH), the “H+/Na+ transport activity normalized” value in series [1] amounted to 1.11. For the same molecule, the antibacterial activity result in series [2] is “-”. In addition, the cell viability/% in series [3] stood at 100.0%.

With `CC(C)C[C@@H](NC(=O)[C@H](C)NC(=O)[C@H](NC(=O)[C@H](C)NC(=O)CNC(=O)[C@@H](NC=O)C(C)C)[C@H](C)O)C(=O)N[C@H](C(=O)N[C@H](CC(C)C)C(=O)N[C@@H](Cc1c[nH]c2ccccc12)C(=O)N[C@@H](C(=O)N[C@@H](Cc1c[nH]c2ccccc12)C(=O)N[C@H](CC(C)C)C(=O)N[C@@H](Cc1c[nH]c2ccccc12)C(=O)N[C@@H](C(=O)N[C@@H](Cc1c[nH]c2ccccc12)C(=O)NCCO)C(C)C)[C@H](C)O)C(C)C` [compound 367] (For-VGA[dT]A[dL]V[dL]W[dT]W[dL]W[dV]W-NHCH2CH2OH), the “H+/Na+ transport activity normalized” value in series [1] worked out at 1.24. The antibacterial activity entry in series [2] was “-”. In addition, the cell viability/% in series [3] was found to be 100.0%.

For `CC(C)C[C@@H](NC(=O)[C@H](C)NC(=O)CNC(=O)[C@@H](NC=O)C(C)C)C(=O)N[C@@H](C)C(=O)N[C@H](CC(C)C)C(=O)N[C@H](C(=O)N[C@@H](C(=O)N[C@@H](Cc1c[nH]c2ccccc12)C(=O)N[C@H](CC(C)C)C(=O)N[C@@H](Cc1c[nH]c2ccccc12)C(=O)N[C@H](CC(C)C)C(=O)N[C@@H](Cc1c[nH]c2ccccc12)C(=O)N[C@@H](C(=O)N[C@@H](Cc1c[nH]c2ccccc12)C(=O)NCCO)C(C)C)[C@H](C)O)C(C)C` [compound 4690] (For-VGA[dL]A[dL]V[dT]W[dL]W[dL]W[dV]W-NHCH2CH2OH), the “H+/Na+ transport activity normalized” value in series [1] is given as 1.01. For the same molecule, the antibacterial activity entry in series [2] was “+”. In series [3], this molecule gave a cell viability/% of 100.0%.

As to `CC(C)C[C@@H](NC(=O)[C@H](Cc1c[nH]c2ccccc12)NC(=O)[C@H](NC(=O)[C@H](Cc1c[nH]c2ccccc12)NC(=O)[C@@H](CC(C)C)NC(=O)[C@@H](NC(=O)[C@H](NC(=O)[C@H](C)NC(=O)[C@H](NC(=O)[C@H](C)NC(=O)CNC(=O)[C@@H](NC=O)C(C)C)[C@H](C)O)C(C)C)C(C)C)C(C)C)C(=O)N[C@@H](Cc1c[nH]c2ccccc12)C(=O)N[C@@H](C(=O)N[C@@H](Cc1c[nH]c2ccccc12)C(=O)NCCO)C(C)C` [compound 11238] (For-VGA[dT]A[dV]V[dL]W[dV]W[dL]W[dV]W-NHCH2CH2OH), the “H+/Na+ transport activity normalized” value in series [1] was found to be 1.03. Besides, in series [2], the antibacterial activity entry is given as “-”. In series [3], this molecule came in with a cell viability/% of 64.7%.

For `CC(C)C[C@@H](NC(=O)[C@H](C)NC(=O)[C@H](NC(=O)[C@H](C)NC(=O)CNC(=O)[C@@H](NC=O)C(C)C)C(C)C)C(=O)N[C@H](C(=O)N[C@@H](C(=O)N[C@@H](Cc1c[nH]c2ccccc12)C(=O)N[C@@H](C(=O)N[C@@H](Cc1c[nH]c2ccccc12)C(=O)N[C@H](CC(C)C)C(=O)N[C@@H](Cc1c[nH]c2ccccc12)C(=O)N[C@@H](C(=O)N[C@@H](Cc1c[nH]c2ccccc12)C(=O)NCCO)[C@H](C)O)C(C)C)C(C)C)C(C)C` [compound 8731] (For-VGA[dV]A[dL]V[dV]W[dV]W[dL]W[dT]W-NHCH2CH2OH), the “H+/Na+ transport activity normalized” value in series [1] is listed as 1.05. Further, the antibacterial activity result in series [2] is “-”. The molecule also registered a cell viability/% in series [3] of 71.2%.

In the case of `CC(C)C[C@@H](NC(=O)[C@H](C)NC(=O)CNC(=O)[C@@H](NC=O)C(C)C)C(=O)N[C@@H](C)C(=O)N[C@H](CC(C)C)C(=O)N[C@H](C(=O)N[C@@H](C(=O)N[C@@H](Cc1c[nH]c2ccccc12)C(=O)N[C@@H](C(=O)N[C@@H](Cc1c[nH]c2ccccc12)C(=O)N[C@@H](C(=O)N[C@@H](Cc1c[nH]c2ccccc12)C(=O)N[C@H](CC(C)C)C(=O)N[C@@H](Cc1c[nH]c2ccccc12)C(=O)NCCO)[C@H](C)O)C(C)C)C(C)C)C(C)C` [compound 6876] (For-VGA[dL]A[dL]V[dV]W[dV]W[dT]W[dL]W-NHCH2CH2OH), the “H+/Na+ transport activity normalized” value in series [1] worked out at 1.13. For the same molecule, in series [2], the antibacterial activity result is on record as “-”. The molecule also showed a cell viability/% in series [3] of 100.0%.

Turning to `CC(C)C[C@@H](NC(=O)[C@H](C)NC(=O)[C@H](NC(=O)[C@H](C)NC(=O)CNC(=O)[C@@H](NC=O)C(C)C)C(C)C)C(=O)N[C@H](C(=O)N[C@H](CC(C)C)C(=O)N[C@@H](Cc1c[nH]c2ccccc12)C(=O)N[C@H](CC(C)C)C(=O)N[C@@H](Cc1c[nH]c2ccccc12)C(=O)N[C@@H](C(=O)N[C@@H](Cc1c[nH]c2ccccc12)C(=O)N[C@@H](C(=O)N[C@@H](Cc1c[nH]c2ccccc12)C(=O)NCCO)C(C)C)C(C)C)C(C)C` [compound 11280] (For-VGA[dV]A[dL]V[dL]W[dL]W[dV]W[dV]W-NHCH2CH2OH), in series [1], the “H+/Na+ transport activity normalized” value was found to be 1.04. Also, in series [2], the antibacterial activity entry is reported as “-”. The molecule also had a cell viability/% in series [3] of 9.9%.

In the case of `CC(C)C[C@@H](NC(=O)[C@H](C)NC(=O)CNC(=O)[C@@H](NC=O)C(C)C)C(=O)N[C@@H](C)C(=O)N[C@@H](C(=O)N[C@H](C(=O)N[C@@H](C(=O)N[C@@H](Cc1c[nH]c2ccccc12)C(=O)N[C@@H](C(=O)N[C@@H](Cc1c[nH]c2ccccc12)C(=O)N[C@H](CC(C)C)C(=O)N[C@@H](Cc1c[nH]c2ccccc12)C(=O)N[C@@H](C(=O)N[C@@H](Cc1c[nH]c2ccccc12)C(=O)NCCO)C(C)C)C(C)C)[C@H](C)O)C(C)C)C(C)C` [compound 5167] (For-VGA[dL]A[dV]V[dT]W[dV]W[dL]W[dV]W-NHCH2CH2OH), the “H+/Na+ transport activity normalized” value in series [1] came to 1.33. Moreover, the antibacterial activity entry in series [2] was “-”. Also, the cell viability/% in series [3] amounted to 100.0%.

Consider `CC(C)C[C@@H](NC(=O)[C@H](C)NC(=O)[C@H](NC(=O)[C@H](C)NC(=O)CNC(=O)[C@@H](NC=O)C(C)C)C(C)C)C(=O)N[C@H](C(=O)N[C@H](CC(C)C)C(=O)N[C@@H](Cc1c[nH]c2ccccc12)C(=O)N[C@@H](C(=O)N[C@@H](Cc1c[nH]c2ccccc12)C(=O)N[C@H](CC(C)C)C(=O)N[C@@H](Cc1c[nH]c2ccccc12)C(=O)N[C@@H](C(=O)N[C@@H](Cc1c[nH]c2ccccc12)C(=O)NCCO)C(C)C)C(C)C)C(C)C` [compound 9742] (For-VGA[dV]A[dL]V[dL]W[dV]W[dL]W[dV]W-NHCH2CH2OH), for which, in series [1], the “H+/Na+ transport activity normalized” value worked out at 1.21. Moreover, the antibacterial activity entry in series [2] is listed as “+”. Further, the cell viability/% in series [3] came to 0.0%.

Consider `CNC(=O)C[C@@H](NC(=O)[C@@H](NC(=O)[C@H](NC(=O)[C@H](C)NC(=O)[C@H](NC(=O)[C@H](C)NC(=O)CNC(=O)[C@@H](NC=O)C(C)C)C(C)C)C(C)C)C(C)C)C(=O)N[C@@H](Cc1c[nH]c2ccccc12)C(=O)N[C@H](CC(C)C)C(=O)N[C@@H](Cc1c[nH]c2ccccc12)C(=O)N[C@H](CC(C)C)C(=O)N[C@@H](Cc1c[nH]c2ccccc12)C(=O)N[C@@H](C(=O)N[C@@H](Cc1c[nH]c2ccccc12)C(=O)NCCO)C(C)C` [compound 6899] (For-VGA[dV]A[dV]V[dD](NHMe)W[dL]W[dL]W[dV]W-NHCH2CH2OH), for which, in series [1], the “H+/Na+ transport activity normalized” value is listed as 1.12. In series [2], the antibacterial activity entry is reported as “-”. The cell viability/% in series [3] is on record as 100.0%.

Source of the values: article PMC7531004, “Discovery of gramicidin A analogues with altered activities by multidimensional screening of a one-bead-one-compound library” (Nature Communications, 2020).
